Assay results as given in patent US8163756B2 (priority 2004, dated 2012).

Key:
Type in all cases: biochemical
[1] = biological target: KDR kinase (Homo sapiens, UniProt P35968, DEL940-989/E990V); assay: KDR kinase assay K1 (pyruvate kinase/lactate dehydrogenase coupled, spectrophotometric); conditions: Method K1; read-out: KDR Data (IC50)
Method: (§1) IC50 values were calculated from a series of percent inhibition values determined at a range of inhibitor concentrations using software routines as implemented in the GraphPad Prism software package.

[2] = biological target: T1, Abl kinase (Homo sapiens, UniProt P00519); assay: Abl kinase assay A1 (pyruvate kinase/lactate dehydrogenase coupled, spectrophotometric); conditions: Method A1; read-out: Abl Data (IC50)
T1 sequence (P00519 229-512): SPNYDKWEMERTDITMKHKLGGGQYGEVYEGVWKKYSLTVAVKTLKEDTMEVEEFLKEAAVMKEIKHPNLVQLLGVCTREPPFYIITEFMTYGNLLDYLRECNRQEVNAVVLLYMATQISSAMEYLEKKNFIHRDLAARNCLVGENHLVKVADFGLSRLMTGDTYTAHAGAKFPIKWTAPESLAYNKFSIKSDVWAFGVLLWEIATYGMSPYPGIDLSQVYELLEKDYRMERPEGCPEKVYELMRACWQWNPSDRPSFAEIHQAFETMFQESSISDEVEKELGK
Method: as §1

[3] = biological target: phosphorylated p-38-alpha kinase (Homo sapiens, UniProt Q16539); assay: P-38 alpha kinase assay P1 (coupled spectrophotometric, 2 h pre-incubation); conditions: method P1 (2 h pre-incubation); read-out: P-38 Data
phosphorylated p-38-alpha kinase, sequence (Q16539 1-360 isoform Q16539-2): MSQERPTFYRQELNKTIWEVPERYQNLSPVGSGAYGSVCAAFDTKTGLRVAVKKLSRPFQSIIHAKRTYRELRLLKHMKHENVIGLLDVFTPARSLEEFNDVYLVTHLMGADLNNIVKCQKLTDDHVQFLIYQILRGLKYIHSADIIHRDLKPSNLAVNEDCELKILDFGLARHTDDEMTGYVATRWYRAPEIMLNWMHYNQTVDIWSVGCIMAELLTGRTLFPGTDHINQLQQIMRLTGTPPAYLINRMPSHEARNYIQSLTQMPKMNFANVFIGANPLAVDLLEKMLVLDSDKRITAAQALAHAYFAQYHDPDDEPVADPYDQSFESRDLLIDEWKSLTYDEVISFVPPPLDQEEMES

[4] = biological target: B-Raf(V599E) kinase (Homo sapiens, UniProt P15056, V600E); assay: B-Raf(V599E) kinase assay B1 (construct 1, MEK1 substrate, coupled spectrophotometric)
B-Raf(V599E) kinase, sequence (P15056 with tags, fused parts or gaps V600E): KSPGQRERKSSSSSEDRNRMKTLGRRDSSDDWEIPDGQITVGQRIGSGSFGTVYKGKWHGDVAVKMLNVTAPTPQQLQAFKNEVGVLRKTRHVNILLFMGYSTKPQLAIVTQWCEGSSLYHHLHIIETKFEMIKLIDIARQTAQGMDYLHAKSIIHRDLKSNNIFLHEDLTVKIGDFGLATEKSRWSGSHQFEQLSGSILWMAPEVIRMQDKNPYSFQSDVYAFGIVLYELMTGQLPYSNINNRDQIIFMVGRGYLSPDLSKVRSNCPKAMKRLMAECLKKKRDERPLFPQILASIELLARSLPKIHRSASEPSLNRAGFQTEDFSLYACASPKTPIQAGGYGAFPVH
Method: The test compounds were incubated with the reaction mixtureat 30° C. for 2 h. […] The reaction rate was calculated using the […] time frame. […] IC50 values were calculated from a series of percent inhibition values determined at a range of inhibitor concentrations using software routines as implemented in the GraphPad Prism software package.

KDR kinase, sequence (P35968 with tags, fused parts or gaps DEL940-989/E990V): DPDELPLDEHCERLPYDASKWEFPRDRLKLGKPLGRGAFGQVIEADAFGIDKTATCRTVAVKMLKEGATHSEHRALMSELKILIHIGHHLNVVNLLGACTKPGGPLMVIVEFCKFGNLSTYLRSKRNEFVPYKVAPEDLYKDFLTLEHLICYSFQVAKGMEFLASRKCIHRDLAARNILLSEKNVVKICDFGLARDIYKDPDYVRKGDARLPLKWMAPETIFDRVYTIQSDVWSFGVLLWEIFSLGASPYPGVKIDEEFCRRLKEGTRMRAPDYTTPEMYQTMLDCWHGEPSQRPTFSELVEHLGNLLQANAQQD

In the case of `CC(C)(C)c1cc(NC(=O)Nc2cccc(Cl)c2Cl)n(-c2cccc(CO)c2)n1` [Example 1, 1-[3-t-butyl-1-(3-hydroxymethyl-phenyl)-1H-pyrazol-5-yl]-3-(2,3-dichlorophenyl)urea], the IC50 [1] is reported as 130 nM, the IC50 [2] is reported as 310 nM and the IC50 [3] is reported as 11 nM. It also gave an IC50 [4] of 4.6 nM.

`CC(C)(C)c1cc(NC(=O)Nc2cccc(Cl)c2Cl)n(-c2cccc(C(C)(C)O)c2)n1` [Example 2, 1-{3-t-butyl-1-[3-(2-hydroxypropan-2-yl)phenyl]-1H-pyrazol-5-yl}-3-(2,3-dichlorophenyl)urea] was tested, and the IC50 [1] was 460 nM, the IC50 [2] was 2000 nM and the IC50 [4] was 19 nM.

`CC(C)(C)c1cc(NC(=O)Nc2cccc(Cl)c2Cl)n(-c2cccc(C#N)c2)n1` [Example 9] showed an IC50 [1] of 47 nM, an IC50 [2] of 180 nM and an IC50 [4] of 4.6 nM.

`CC(C)(C)c1cc(NC(=O)Nc2cccc(Cl)c2Cl)n(-c2cccc(C(N)=O)c2)n1` [Example 13, 1-[3-t-butyl-1-(3-carbamoylphenyl)-1H-pyrazol-5-yl]-3-(2,3-dichlorophenyl)urea] showed an IC50 [1] of 360 nM, an IC50 [2] of 2000 nM and an IC50 [3] of 45 nM. It also gave an IC50 [4] of 5.2 nM.

Compound `COc1cccc(-n2nc(C(C)(C)C)cc2NC(=O)Nc2cccc(Cl)c2Cl)c1` [Example 15, 1-(3-t-butyl-1-(3-methoxyphenyl)-1H-pyrazol-5-yl)-3-(2,3-dichlorophenyl)urea] has an IC50 [1] of 81 nM, an IC50 [2] of 390 nM and an IC50 [4] of 3.3 nM.

In the case of `CC(C)(C)c1cc(NC(=O)Nc2cccc(Cl)c2Cl)n(-c2ccc(CO)cc2)n1` [Example 19, 1-{3-t-butyl-1-[4-(hydroxymethyl)-phenyl]-1H-pyrazol-5-yl}-3-(2,3-dichlorophenyl)urea], the IC50 [1] is reported as 710 nM, the IC50 [2] is reported as 620 nM and the IC50 [4] is reported as 4.8 nM.

In the case of `CC(C)(C)c1cc(NC(=O)Nc2cccc(Cl)c2Cl)n(-c2ccc(C(C)(C)O)cc2)n1` [Example 20, 1-{3-t-butyl-1-[4-(2-hydroxypropan-2-yl)phenyl]-1H-pyrazol-5-yl}-3-(2,3-dichlorophenyl)urea], the IC50 [1] is reported as 130 nM, the IC50 [2] is reported as 1600 nM and the IC50 [3] is reported as 60 nM. It also gave an IC50 [4] of 8.5 nM.

Work on `CC(C)(C)c1cc(NC(=O)Nc2cccc(Cl)c2Cl)n(-c2cccc(CCO)c2)n1` [Example 24, 1-{3-t-butyl-1-[3-(2-hydroxyethyl)phenyl]-1H-pyrazol-5-yl}-3-(2,3-dichlorophenyl)urea] yielded an IC50 [1] of 380 nM, an IC50 [2] of 830 nM and an IC50 [3] of 11 nM. For the same compound, the IC50 [4] was 2.3 nM.

For `CC(C)(C)c1cc(NC(=O)Nc2cccc(Cl)c2Cl)n(-c2cccc(CCN)c2)n1` [Example 39, 1-{1-[3-(2-aminoethyl)phenyl]-3-t-butyl-1H-pyrazol-5-yl}-3-(2,3-dichlorophenyl)urea], the IC50 [1] was 240 nM, the IC50 [2] was 350 nM and the IC50 [4] was 7.1 nM.

In the case of `CN(C)CCc1cccc(-n2nc(C(C)(C)C)cc2NC(=O)Nc2cccc(Cl)c2Cl)c1` [Example 40, 1-(3-t-butyl-1-{3-[2-(dimethylamino)ethyl]phenyl}-1H-pyrazol-5-yl)-3-(2,3-di-chlorophenyl)urea], the IC50 [1] is reported as 470 nM, the IC50 [2] is reported as 570 nM and the IC50 [4] is reported as 8.7 nM.

With `CC(C)(C)c1cc(NC(=O)Nc2cccc(Cl)c2Cl)n(-c2cccc(CN)c2)n1` [Example 42, 1-{1-[3-(aminomethyl)phenyl]-3-t-butyl-1H-pyrazol-5-yl}-3-(2,3-dichloro-phenyl)urea] the IC50 [1] was 360 nM, the IC50 [2] was 1500 nM and the IC50 [4] was 10 nM.

With `CC(C)(C)c1cc(NC(=O)Nc2cccc(Cl)c2Cl)n(-c2cccc(C(=N)NO)c2)n1` [Example 43, 1-{1-[3-(N-hydroxycarbamimidoyl)phenyl]-3-t-butyl-1H-pyrazol-5-yl}-3-(2,3-dichlorophenyl)-urea] the IC50 [1] was 360 nM, the IC50 [3] was 13 nM and the IC50 [4] was 4.3 nM.

With `CC(C)(C)c1cc(NC(=O)Nc2cccc(Cl)c2Cl)n(-c2cccc(C(=N)N)c2)n1` [Example 44, 1-[3-t-butyl-1-(3-carbamimidoylphenyl)-1H-pyrazol-5-yl]-3-(2,3-dichlorophenyl)urea] the IC50 [1] was 2400 nM, the IC50 [2] was 440 nM and the IC50 [3] was 70 nM. It also gave an IC50 [4] of 4 nM.

`CC(C)(C)c1cc(NC(=O)Nc2ccc(Cl)cc2)n(-c2cc(CO)c3ccccc3c2)n1` [Example 61] was tested, and the IC50 [1] was 1500 nM, the IC50 [2] was 810 nM and the IC50 [4] was 18 nM.

`CC(C)(C)c1cc(NC(=O)Nc2cccc(Cl)c2Cl)n(-c2ccc3c(c2)CCN3)n1` [Example 106, 1-(3-t-butyl-1-(indolin-5-yl)-1H-pyrazol-5-yl)-3-(2,3-dichlorophenyl)urea] gave an IC50 [1] of 120 nM, an IC50 [3] of 12 nM and an IC50 [4] of 3.6 nM.

For `CC(C)(C)c1cc(NC(=O)Nc2cc(F)cc(F)c2F)n(-c2ccc3c(c2)CCN3S(C)(=O)=O)n1` [Example 109, 1-(3-t-butyl-1-(1-(methylsulfonyl)indolin-5-yl)-1H-pyrazol-5-yl)-3-(2,3,5-trifluorophenyl)urea], the IC50 [1] was 38 nM, the IC50 [2] was 140 nM and the IC50 [4] was 2.7 nM.

`CC(C)(C)c1cc(NC(=O)Nc2cccc(Cl)c2Cl)n(-c2ccc3c(c2)CN(C(=N)N)CC3)n1` [Example 130, 1-[3-t-butyl-1-(2-carbamimidoyl-1,2,3,4-tetrahydroisoquinolin-7-yl)-1H-pyrazol-5-yl]-3-(2,3-dichlorophenyl)urea] was tested, and the IC50 [1] was 320 nM and the IC50 [2] was 230 nM.

In the case of `CC(C)(C)c1cc(NC(=O)Nc2cccc(Oc3ccccc3)c2)n(-c2ccc3c(c2)CCNC3)n1` [Example 140, 1-(3-t-butyl-1-(1,2,3,4-tetrahydro-isoquinolin-6-yl)-1H-pyrazol-5-yl)-3-(3-phenoxyphenyl)urea], the IC50 [1] is reported as 2300 nM, the IC50 [2] is reported as 120 nM and the IC50 [4] is reported as 4.6 nM.

`CC(C)(C)c1cc(NC(=O)Nc2ccc(Oc3ccccc3)cc2)n(-c2ccc3c(c2)CCNC3)n1` [Example 143, 1-(3-t-butyl-1-(1,2,3,4-tetrahydroiso-quinolin-6-yl)-1H-pyrazol-5-yl)-3-(4-phenoxyphenyl)-urea] showed an IC50 [1] of 940 nM, an IC50 [2] of 250 nM and an IC50 [4] of 14 nM.

With `CNC(=O)[C@@H]1Cc2ccc(-n3nc(C(C)(C)C)cc3NC(=O)Nc3cccc(Cl)c3Cl)cc2CN1` [Example 187, 1-(3-t-butyl-1-((3S)-3-(methylcarbamoyl)-1,2,3,4-tetrahydroisoquinolin-7-yl)-1H-pyrazol-5-yl)-3 (2,3-dichlorophenyl)urea] the IC50 [1] was 150 nM, the IC50 [2] was 560 nM and the IC50 [4] was 3 nM.

`CNC(=O)C1NCCc2cc(-n3nc(C(C)(C)C)cc3NC(=O)Nc3cccc(Cl)c3Cl)ccc21` (centres unmarked) [Example 204, 1-(3-t-butyl-1-(1-(methylcarbamoyl)-1,2,3,4-tetrahydroisoquinolin-6-yl)-1H-pyrazol-5-yl)-3-(2,3-dichlorophenyl)urea] showed an IC50 [1] of 99 nM and an IC50 [3] of 9 nM.

`CC(C)(C)c1cc(NC(=O)Nc2cccc(Cl)c2Cl)n(-c2ccc3c(c2)CC(C(=O)O)NC3)n1` (centres unmarked) [Example 205] showed an IC50 [1] of 280 nM and an IC50 [3] of 29 nM.

For `COc1ccc(-n2nc(C(C)(C)C)cc2NC(=O)Nc2cccc(F)c2F)cc1` [Example 241, 1-[3-t-butyl-1-(4-methoxyphenyl)-1H-pyrazol-5-yl]-3-(2,3-difluorophenyl)urea], the IC50 [1] was 570 nM, the IC50 [3] was 220 nM and the IC50 [4] was 24 nM.

For `CCOC(=O)CCc1cccc(-n2nc(C(C)(C)C)cc2NC(=O)Nc2cccc(Cl)c2Cl)c1` [Example 264, 3-(3-{3-t-butyl-5-[3-(2,3-dichlorophenyl)ureido]-1H-pyrazol-1-yl}phenyl)propionic acid ethyl ester], the IC50 [1] was 140 nM, the IC50 [3] was 82 nM and the IC50 [4] was 7.3 nM.

`CC(Cc1cccc(-n2nc(C(C)(C)C)cc2NC(=O)Nc2cccc(Cl)c2Cl)c1)C(=O)O` (centres unmarked) [Example 267, 3-(3-{3-t-butyl-5-[3-(2,3-dichlorophenyl)ureido]-1H-pyrazol-1-yl}-phenyl)-2-methylpropanoic acid] was tested, and the IC50 [1] was 550 nM, the IC50 [3] was 12 nM and the IC50 [4] was 7.9 nM.

Work on `CC(C)(C)c1cc(NC(=O)Nc2cccc(Cl)c2Cl)n(-c2cccc(Cn3c(=O)[nH]n(-c4ccccc4)c3=O)c2)n1` [Example 273, 1-(3-t-butyl-1-{3-[(3,5-dioxo-1-phenyl-1,2,4-triazolidin-4-yl)methyl]phenyl}-1H-pyrazol-5-yl)-3-(2,3-dichlorophenyl)urea] yielded an IC50 [1] of 1700 nM, an IC50 [3] of 34 nM and an IC50 [4] of 8.7 nM.

`CC(C)(C)c1cc(NC(=O)Nc2cccc(Cl)c2Cl)n(-c2ccc3c(c2)CCN(S(C)(=O)=O)CC3)n1` [Example 336, 1-(3-t-butyl-1-(3-(methylsulfonyl)-2,3,4,5-tetrahydro-1H-benzo[d]azepin-7-yl)-1 H-pyrazol-5-yl)-3-(2,3-dichlorophenyl)urea] showed an IC50 [1] of 170 nM, an IC50 [3] of 11 nM and an IC50 [4] of 2 nM.

`CC(C)(C)c1cc(NC(=O)Nc2cccc(Cl)c2Cl)n(-c2ccc(CC(=O)O)cc2)n1` [Example 383] gave an IC50 [1] of 280 nM, an IC50 [3] of 7 nM and an IC50 [4] of 8.1 nM.

`CC1(O)CCN(C(=O)Cc2ccc(-n3nc(C(C)(C)C)cc3NC(=O)Nc3cccc(Cl)c3Cl)cc2)CC1` [Example 496, 1-(3-t-butyl-1-{4-[2-(4-hydroxy-4-methylpiperidin-1-yl)-2-oxoethyl]phenyl}-1H-pyrazol-5-yl)-3-(2,3-dichlorophenyl)urea] showed an IC50 [1] of 470 nM, an IC50 [3] of 5 nM and an IC50 [4] of 26 nM.
